According to ChEMBL document CHEMBL1131758, “5-fluoro-2-methyl-N-[5-(5H-pyrrolo[2,1-c][1,4]benzodiazepine-10(11H)-yl carbonyl)-2-pyridinyl]benzamide (CL-385004) and analogs as orally active arginine vasopressin receptor antagonists” (Bioorg Med Chem Lett, 1999):

How the values were obtained:
Vasopressin V2 receptor [1] = target: T1, Vasopressin V2 receptor (Rattus norvegicus, UniProt Q00788); assay: Displacement of P[3H]-AVP from isolated rat kidney medullary V2 receptor
Vasopressin V1a receptor [2] = target: T2, Vasopressin V1a receptor (Rattus norvegicus, UniProt P30560); assay: Displacement of (Phe-3,4,5 [3H]-) AVP from isolated rat hepatic V1a receptor
T2 sequence (P30560 whole entry): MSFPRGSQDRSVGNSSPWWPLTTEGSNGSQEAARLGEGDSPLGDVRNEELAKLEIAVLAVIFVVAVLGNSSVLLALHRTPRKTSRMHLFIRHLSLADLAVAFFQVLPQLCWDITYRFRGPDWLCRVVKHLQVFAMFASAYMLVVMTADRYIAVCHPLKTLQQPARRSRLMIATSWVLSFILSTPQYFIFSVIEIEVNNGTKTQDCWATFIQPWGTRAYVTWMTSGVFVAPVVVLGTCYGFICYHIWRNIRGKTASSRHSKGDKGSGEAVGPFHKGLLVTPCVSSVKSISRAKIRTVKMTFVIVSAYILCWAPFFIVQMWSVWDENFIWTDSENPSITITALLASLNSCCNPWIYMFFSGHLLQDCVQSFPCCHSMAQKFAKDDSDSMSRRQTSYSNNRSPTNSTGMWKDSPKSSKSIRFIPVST

Rattus norvegicus [3] = assay: Amount of urine output was measured in rat at a dose of 10 mg/kg/po; assay type: ADME, organism-based; conditions: in vivo
Rattus norvegicus [4] = assay: Amount of urine output was measured in rat at a dose of 1 mg/kg/po; assay type: ADME, organism-based; conditions: in vivo
[5] = target: Vasopressin V1a receptor (Rattus norvegicus) (UniProt P30560); assay: In vitro inhibition of (Phe-3,4,5 [3H]-) AVP binding towards isolated rat hepatic V1a receptor at a dose of 10 uM
Chain of Vasopressin V1a receptor (Rattus norvegicus) (P30560 whole entry, looked up): as the sequence (P30560 whole entry) above

[6] = target: Vasopressin V2 receptor (Rattus norvegicus) (UniProt Q00788); assay: In vitro inhibition of (P[3H]-AVP binding towards isolated rat kidney medullary V2 receptor at a dose of 10 uM
Chain of Vasopressin V2 receptor (Rattus norvegicus) (Q00788 whole entry): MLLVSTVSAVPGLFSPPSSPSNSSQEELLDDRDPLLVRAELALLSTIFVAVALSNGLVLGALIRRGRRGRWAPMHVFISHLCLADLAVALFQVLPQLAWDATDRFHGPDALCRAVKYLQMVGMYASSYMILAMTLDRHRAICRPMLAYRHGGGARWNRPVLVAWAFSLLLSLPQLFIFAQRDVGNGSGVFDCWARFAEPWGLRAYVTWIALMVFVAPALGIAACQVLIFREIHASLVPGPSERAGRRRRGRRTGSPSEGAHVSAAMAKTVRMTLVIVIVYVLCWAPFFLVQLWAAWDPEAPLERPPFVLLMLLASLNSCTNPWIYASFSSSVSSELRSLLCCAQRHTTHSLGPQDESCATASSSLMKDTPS

Vasopressin V1a receptor [7] = target: T2, Vasopressin V1a receptor; assay: In vitro inhibition of (Phe-3,4,5 [3H]-) AVP binding towards isolated rat hepatic Vasopressin V1a receptor
Vasopressin V2 receptor [8] = target: T1, Vasopressin V2 receptor; assay: In vitro inhibition of (P[3H]-AVP binding towards isolated rat kidney medullary Vasopre ssin V2 receptor

T1 sequence (Q00788 whole entry): as above

IC50 (Vasopressin V2 receptor [1]) [µM] | IC50 (Vasopressin V1a receptor [2]) [µM] | Urine volume (Rattus norvegicus [3]) [ml 4hr-1] | Structure (SMILES) | further results
0.48 | 0.26 |  | O=C(Nc1ccc(C(=O)N2Cc3cccn3Cc3ccccc32)cn1)c1cc(-c2ccccn2)ccc1Cl | 
0.0083 | 0.03 | 16.5 | O=C(Nc1ccc(C(=O)N2Cc3cccn3Cc3ccccc32)cn1)c1ccccc1-c1ccccc1 | 
 |  |  | Cc1ccc(F)cc1C(=O)Nc1ccc(C(=O)N2Cc3cccn3Cc3ccccc32)cn1 | Urine volume (Rattus norvegicus [4]): 20 ml 4hr-1
0.0043 | 0.1 | 19.3 | O=C(Nc1ccc(C(=O)N2Cc3cccn3Cc3ccccc32)cn1)c1cc(Cl)ccc1Cl | 
 |  |  | O=C(Nc1ccc(C(=O)N2Cc3cccn3Cc3ccccc32)cn1)c1ccc(F)cc1F | inhibition [5]: 37%; inhibition [6]: 58%
 |  |  | COc1cc(C(=O)Nc2ccc(C(=O)N3Cc4cccn4Cc4ccccc43)cn2)cc(OC)c1OC | inhibition [5]: 51%; inhibition [6]: 41%
0.24 | 0.31 | 11.8 | O=C(Nc1ccc(C(=O)N2Cc3cccn3Cc3ccccc32)cn1)c1cc(F)ccc1F | 
0.16 | 0.92 |  | O=C(Nc1ccc(C(=O)N2Cc3cccn3Cc3ccccc32)cn1)c1ccccc1[N+](=O)[O-] | 
0.0005 | 0.082 | 35 | Cc1ccc(F)cc1C(=O)Nc1ccc(C(=O)N2Cc3cccn3Cc3ccccc32)c(Cl)c1 [LIXIVAPTAN] | 
0.033 | 0.099 | 12.5 | Cc1ccc(F)cc1C(=O)Nc1ccc(C(=O)N2Cc3ccc(CN(C)C)n3Cc3ccccc32)cn1 | 
 | 0.009 | 34 | Cc1c(F)cccc1C(=O)Nc1ccc(C(=O)N2Cc3cccn3Cc3ccccc32)cn1 | 
0.0073 | 0.082 | 16.5 | O=C(Nc1ccc(C(=O)N2Cc3cccn3Cc3ccccc32)cn1)c1cc(Br)ccc1Cl | 
 |  | 4 | O=C(Nc1ccc(C(=O)N2Cc3cccn3Cc3ccccc32)cn1)c1ccccc1Cl | 
0.21 |  |  | Nc1ccccc1C(=O)Nc1ccc(C(=O)N2Cc3cccn3Cc3ccccc32)cn1 | inhibition [5]: 29%
0.29 |  |  | Cc1ccc(F)cc1C(=O)N(CCCN(C)C)c1ccc(C(=O)N2Cc3cccn3Cc3ccccc32)cn1 | inhibition [5]: 68%
 |  | 30.5 | O=C(Nc1ccc(C(=O)N2Cc3cccn3Cc3ccccc32)cn1)c1ccc(F)cc1Cl | 
0.004 | 0.04 | 15.8 | O=C(Nc1ccc(C(=O)N2Cc3cccn3Cc3ccccc32)cn1)c1c(F)cccc1Cl | 
 |  | 5.3 | Cc1ccccc1C(=O)Nc1ccc(C(=O)N2Cc3cccn3Cc3ccccc32)cn1 | IC50 (Vasopressin V1a receptor [7]): 0.021 µM; IC50 (Vasopressin V2 receptor [8]): 0.003 µM
